Test results from publication PMC6362850 (European journal of medicinal chemistry, 2018).

Biological target: HBV capsid (Hepatitis B virus genotype D subtype ayw, UniProt P03146, R150C)
Experiment: Transmission electron microscopy of HBV capsid assembly
Type: biochemical
Conditions: compared to DMSO control

| Compound | Effect on HBV capsid assembly (TEM) |
| --- | --- |
| Cc1cc(NC(=O)c2sc(N)c(C(N)=O)c2C)ccc1F [Compound 19h] | promoted the aggregation of HBV capsid |

Biological target: T1, HBV Cp (Hepatitis B virus genotype D subtype ayw, UniProt P03146, R150C)
Experiment: not given
Conditions: HTS of commercial libraries; cited from earlier work

| Compound | Binding to HBV Cp in TSA (HTS), in words |
| --- | --- |
| Cc1c(C(=O)Nc2ccccc2)sc(N)c1C(N)=O [Compound 11, 5-Amino-3-methyl-N2-phenylthiophene-2,4-dicarboxamide] | strong binder |

Tested on: not listed separately
Experiment: Aqueous solubility assay in DPBS
Type: physicochemical
Conditions: thermodynamic, 72 h, ambient temperature

| Compound | Aqueous Solubility |
| --- | --- |
| Cc1c(C(=O)Nc2ccc(F)c(F)c2)sc(N)c1C(N)=O [Compound 19g] | poor aqueous solubility |
| Cc1c(C(=O)Nc2ccc(F)c(C#N)c2)sc(N)c1C(N)=O [Compound 19l] | poor aqueous solubility |
| Cc1c(C(=O)Nc2ccc(F)c(C(F)F)c2)sc(N)c1C(N)=O [Compound 19o] | poor aqueous solubility |

Biological target: T1, HBV Cp
Experiment: not given
Type: binding
Conditions: not given

| Compound | Cp binding in TSA, in words |
| --- | --- |
| 5-Amino-4-carbamothioyl-N-(3,4-difluorophenyl)-3-methylthiophene-2-carboxamide [Compound 13] | Strong binding |
| Cc1c(C(=O)Nc2ccccc2)sc(NC(=O)N2CCOCC2)c1C(N)=O [Compound 12a, 3-Methyl-5-(morpholine-4-carboxamido)-N2-phenylthiophene-2,4-dicarboxamide] | completely inactive |
| Cc1c(C(=O)Nc2ccccc2)sc(-n2cnnn2)c1C(N)=O [Compound 12k] | completely inactive |
| Cc1c(C(=O)Nc2ccccc2)sc(N)c1C#N [Compound 14a] | loss of binding affinity |
| Cc1c(C(=O)Nc2cc(F)c(F)c(Cl)c2)sc(N)c1C#N [Compound 14d] | loss of binding affinity |
| Cc1c(C(=O)Nc2ccc(F)c(F)c2)sc(N)c1C(=O)NC1CCCC1 [Compound 16m] | retained strong Cp binding |
| Cc1c(C(=O)NCc2ccccc2)sc(N)c1C(N)=O [Compound 19a] | strong Cp binding was preserved |
| COc1ccc(NC(=O)c2sc(N)c(C(N)=O)c2C)cc1 [Compound 19b] | Cp binding was preserved |
| Cc1c(C(=O)Nc2ccc(F)cc2)sc(N)c1C(N)=O [Compound 19e] | strong Cp binding |
| Cc1cc(NC(=O)c2sc(N)c(C(N)=O)c2C)ccc1F [Compound 19h] | only the denaturation peak corresponding to fully assemble capsid was observed |
